This experiment deals with BDF1 mice, P388 leukemia ip, median survival T/C. The experiment in a line: NCI In Vivo Anticancer Drug Screen. Data for tumor model P388 Leukemia (intraperitoneal) in B6D2F1 (BDF1) mice. As to conditions: endpoint: median survival time, higher = longer survival. An outline of the steps: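 T/C = treated-group survival ÷ vehicle-control survival; tumour transplanted into mice before dosing.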

Where [1] appears, read: dose: 200.0 mg/kg/injection, schedule: Q04DX003 (ip), vehicle: saline.
The mark [2] stands for this setting: dose: 100.0 mg/kg/injection, schedule: Q01DX009 (ip), vehicle: saline with Tween-80.
Setting [3] is: dose: 100.0 mg/kg/injection, schedule: Q04DX003 (ip), vehicle: saline with Tween-80.
The mark [4] stands for this setting: dose: 200.0 mg/kg/injection, schedule: Q01DX009 (ip), vehicle: saline with Tween-80.
[5] abbreviates: dose: 200.0 mg/kg/injection, schedule: Q04DX003 (ip), vehicle: saline with Tween-80.
The mark [6] stands for this setting: dose: 50.0 mg/kg/injection, schedule: Q01DX009 (ip), vehicle: saline.
Where [7] appears, read: dose: 100.0 mg/kg/injection, schedule: Q01DX009 (ip), vehicle: saline.
Setting [8] is: dose: 200.0 mg/kg/injection, schedule: Q01DX009 (ip), vehicle: saline.
The mark [9] stands for this setting: dose: 25.0 mg/kg/injection, schedule: Q01DX009 (ip), vehicle: saline.
[10] abbreviates: dose: 50.0 mg/kg/injection, schedule: Q04DX003 (ip), vehicle: saline with Tween-80.

Each structure is given as a SMILES string. Values joined by “and” are separate entries in the source; they are usually repeats but may differ in a detail not shown here. Identical values can stand only once. Toxic doses and inconclusive results are not listed.

On to `CCN(CC)CCNc1ccc(CO)c2sc3ccccc3c(=O)c12`, for which the T/C is 108 % of control (dose: 17.3 mg/kg/injection, schedule: Q01DX009 (ip), vehicle: water); 104 % of control (dose: 18.75 mg/kg/injection, schedule: Q01DX009 (ip), vehicle: saline); 119 % of control (dose: 21.6 mg/kg/injection, schedule: Q01DX009 (ip), vehicle: water); 122 % of control (dose: 28.8 mg/kg/injection, schedule: Q01DX009 (ip), vehicle: water); 150 % of control (dose: 42.0 mg/kg/injection, schedule: Q01DX009 (ip), vehicle: water); 170 % of control (dose: 48.0 mg/kg/injection, schedule: Q01DX009 (ip), vehicle: water). For the same molecule, the T/C (dose: 60.0 mg/kg/injection, schedule: Q01DX009 (ip), vehicle: water) is 160 % of control; the T/C (dose: 70.0 mg/kg/injection, schedule: Q01DX009 (ip), vehicle: water) is 122 % of control; the T/C (dose: 75.0 mg/kg/injection, schedule: Q01DX009 (ip), vehicle: saline) was 116 % of control; the T/C (dose: 80.0 mg/kg/injection, schedule: Q01DX009 (ip), vehicle: water) is 188 % of control; the T/C (dose: 88.0 mg/kg/injection, schedule: Q04DX003 (ip), vehicle: saline) is 109 % of control; the T/C (dose: 100.0 mg/kg/injection, schedule: Q01DX009 (ip), vehicle: water) is 113 % of control. Besides, the T/C is, setting by setting: (dose: 117.0 mg/kg/injection, schedule: Q01DX009 (ip), vehicle: water) 97 % of control; (dose: 132.0 mg/kg/injection, schedule: Q04DX003 (ip), vehicle: saline) 109 % of control; under setting [1], 122 % of control; (dose: 300.0 mg/kg/injection, schedule: Q04DX003 (ip), vehicle: saline) 163 % of control.
In the case of `NC(Cc1c[nH]c2cc(N(CCCl)CCCl)ccc12)C(=O)O` (stereo unspecified), the T/C is 115 % of control (dose: 0.75 mg/kg/injection, schedule: Q01DX009 (sc), vehicle: olive oil, sesame oil, peanut oil); 123 % of control (dose: 1.5 mg/kg/injection, schedule: Q01DX009 (sc), vehicle: olive oil, sesame oil, peanut oil); 113 % of control (dose: 1.5 mg/kg/injection, schedule: Q04DX003 (sc), vehicle: olive oil, sesame oil, peanut oil); 100 % of control (dose: 3.0 mg/kg/injection, schedule: Q01DX009 (sc), vehicle: olive oil, sesame oil, peanut oil); 177 % of control (dose: 3.0 mg/kg/injection, schedule: Q04DX003 (sc), vehicle: olive oil, sesame oil, peanut oil); 162 % of control (dose: 4.5 mg/kg/injection, schedule: Q04DX003 (sc), vehicle: olive oil, sesame oil, peanut oil). In addition, the T/C (dose: 6.0 mg/kg/injection, schedule: Q04DX003 (sc), vehicle: olive oil, sesame oil, peanut oil) was 154 % of control.
Regarding `O=c1cc(Cl)c2ccccc2[nH]1`, the T/C under setting [2] was 100 % of control; the T/C under setting [3] is 109 % of control; the T/C under setting [4] was 91 % of control; the T/C under setting [5] was 100 % of control; the T/C (dose: 400.0 mg/kg/injection, schedule: Q01DX009 (ip), vehicle: saline with Tween-80) is 100 % of control; the T/C (dose: 400.0 mg/kg/injection, schedule: Q04DX003 (ip), vehicle: saline with Tween-80) is 100 % of control.
As for `CCCCNC1=CC(=O)CC(C)(C)C1`, the T/C was 105 % of control under setting [6], 111 % of control under setting [7] and 107 % of control under setting [8].
Consider `O=C(Nc1ccc(CCNC2=NCCN2)cc1)c1ccc(C(=O)Nc2ccc(CCNC3=NCCN3)cc2)cc1`, for which the T/C (dose: 1.0 mg/kg/injection, schedule: Q01DX009 (ip), vehicle: saline) was 106 % of control; the T/C (dose: 2.0 mg/kg/injection, schedule: Q01DX009 (ip), vehicle: saline) was 106 % of control; the T/C (dose: 8.2 mg/kg/injection, schedule: Q01DX009 (ip), vehicle: saline) is 199 % of control; the T/C (dose: 12.5 mg/kg/injection, schedule: Q01DX009 (ip), vehicle: saline) is 226 % of control and 254 % of control; the T/C (dose: 18.0 mg/kg/injection, schedule: Q01DX009 (ip), vehicle: saline) was 226 % of control; the T/C under setting [9] is 156 % of control. For the same molecule, the T/C under setting [6] was 122 % of control.
As to `Nc1nccnc1N`, the T/C (dose: 50.0 mg/kg/injection, schedule: Q01DX009 (ip), vehicle: saline with Tween-80) is 110 % of control; the T/C under setting [10] is 95 % of control; the T/C under setting [2] was 115 % of control; the T/C under setting [3] was 100 % of control; the T/C under setting [4] was 120 % of control; the T/C under setting [5] was 87 % of control.
Regarding `O=c1c2ccccc2nc(-c2ccccc2)n1-c1nnc(C(F)(F)F)s1`, the T/C was 101 % of control (dose: 3.12 mg/kg/injection, schedule: Q01DX009 (ip), vehicle: saline with Tween-80); 105 % of control (dose: 6.25 mg/kg/injection, schedule: Q01DX009 (ip), vehicle: saline with Tween-80); 91 % of control (dose: 12.5 mg/kg/injection, schedule: Q01DX009 (ip), vehicle: saline with Tween-80).
For the molecule `Cc1ccc(NS(=O)(=O)c2ccc(F)cc2)cc1C`, the T/C runs as follows: (dose: 100.0 mg/kg/injection, schedule: Q04DX003 (ip), vehicle: Klucel (hydroxypropylcellulose) (HPC)) 109 % of control; (dose: 200.0 mg/kg/injection, schedule: Q04DX003 (ip), vehicle: Klucel (hydroxypropylcellulose) (HPC)) 109 % of control; (dose: 400.0 mg/kg/injection, schedule: Q04DX003 (ip), vehicle: Klucel (hydroxypropylcellulose) (HPC)) 104 % of control.
In the case of `Nc1nc2ccccc2[nH]1`, the T/C is, setting by setting: under setting [6], 105 % of control; under setting [7], 102 % of control.
On to `CN(CCS)Cc1ccccc1`, for which the T/C (dose: 25.0 mg/kg/injection, schedule: Q04DX003 (ip), vehicle: saline with Tween-80) was 100 % of control; the T/C under setting [10] is 104 % of control; the T/C under setting [3] was 100 % of control.
With `O=C(O)c1ccc2c3c(cccc13)CC2`, the T/C (dose: 25.0 mg/kg/injection, schedule: Q01DX001 (ip), vehicle: saline sonified) was 100 % of control; the T/C (dose: 50.0 mg/kg/injection, schedule: Q01DX001 (ip), vehicle: saline sonified) was 100 % of control; the T/C (dose: 100.0 mg/kg/injection, schedule: Q01DX001 (ip), vehicle: saline sonified) was 104 % of control.
Take `NC(N)=NC(N)=Nc1ccc2ccc3cccc4ccc1c2c34`: the T/C (dose: 25.0 mg/kg/injection, schedule: Q04DX003 (ip), vehicle: saline + alcohol) was 98 % of control and the T/C (dose: 50.0 mg/kg/injection, schedule: Q04DX003 (ip), vehicle: saline + alcohol) is 106 % of control.
Regarding `CCOC(=O)/C=C(\C)OCC`, the T/C was 104 % of control under setting [9]; 92 % of control and 111 % of control (dose: 25.0 mg/kg/injection, schedule: Q04DX003 (ip), vehicle: saline); 101 % of control under setting [6]; 94 % of control and 114 % of control (dose: 50.0 mg/kg/injection, schedule: Q04DX003 (ip), vehicle: saline); 90 % of control under setting [7]; 100 % of control (dose: 100.0 mg/kg/injection, schedule: Q04DX003 (ip), vehicle: saline). Besides, the T/C by setting is: under setting [8], 109 % of control; under setting [1], 98 % of control and 106 % of control; (dose: 400.0 mg/kg/injection, schedule: Q01DX009 (ip), vehicle: saline) 95 % of control; (dose: 400.0 mg/kg/injection, schedule: Q04DX003 (ip), vehicle: saline) 97 % of control and 104 % of control.

The values above are taken from PubChem BioAssay AID328 (DTP/NCI, 2004).
